Source: patent US10537558B2 (Bantam Pharmaceutical, LLC, priority 2015, dated 2020)

Test system: BJAB cells
Assay: BJAB cell proliferation (Cell Titer Glo)
Type: cell-based
Conditions: Homo sapiens, read-out: EC50
How it was run: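 BJAB cells exposed to serially diluted compounds (0.1% DMSO final) for about 72 h at 37 °C. Proliferation read by Cell Titer Glo luminescence as percent of untreated controls; EC50 from non-linear regression of dose-response data.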

| Structure (SMILES) | EC50 |
| --- | --- |
| CCOc1ncccc1-c1c(C)nn(-c2nc(-c3ccc(Cl)c(Cl)c3)c(SC(C)C)s2)c1C(=O)O [Compound 70, 1-(4-(3,4-dichlorophenyl)-5-(isopropylthio)thiazol-2-yl)-4-(2-ethoxypyridin-3-yl)-3-methyl-1H-pyrazole-5-carboxylic Acid] | 10 to 25 µM |
| Cc1nn(-c2nc(-c3cccc(F)c3)c(SC(C)C)s2)c(C(=O)O)c1-c1cccc(F)c1 [Compound 201a] | 25 to 50 µM |
| Cc1nn(-c2nc(-c3ccc(Cl)c(Cl)c3)c(SC(C)C)s2)c(C(=O)O)c1-c1cccc(CN)c1 [Compound 48, 4-(3-(aminomethyl)phenyl)-1-(4-(3,4-dichlorophenyl)-5-(isopropylthio)thiazol-2-yl)-3-methyl-1H-pyrazole-5-carboxylic acid] | 25 to 50 µM |
| COCCN(C)C(=O)c1c(-c2cccc(F)c2)c(C)nn1-c1nc(-c2ccc(C(F)(F)F)cc2)c(SC(C)C)s1 [Compound 248, 4-(3-fluorophenyl)-1-(5-(isopropylthio)-4-(4-(trifluoromethyl)phenyl)thiazol-2-yl)-N-(2-methoxyethyl)-N,3-dimethyl-1H-pyrazole-5-carboxamide] | > 20 µM |
| Cc1nn(-c2nc(-c3ccc(Cl)c(Cl)c3)c(SC(C)C)s2)c(C(=O)O)c1-c1cc2ccccc2o1 [Compound 20, 4-(benzofuran-2-yl)-1-(4-(3,4-dichlorophenyl)-5-(isopropylthio)thiazol-2-yl)-3-methyl-1H-pyrazole-5-carboxylic Acid] | 5 to 10 µM |
| Cc1nn(-c2nc(-c3cncnc3)c(SC(C)C)s2)c(C(=O)O)c1-c1cccc(F)c1 [Compound 212, 4-(3-fluorophenyl)-1-(5-(isopropylthio)-4-(pyrimidin-5-yl)thiazol-2-yl)-3-methyl-1H-pyrazole-5-carboxylic Acid] | > 40 µM |
| Cc1noc(C)c1-c1nc(-n2nc(C)c(-c3cc(Cl)cc(Cl)c3)c2C(=O)O)sc1SC(C)C [Compound 27, 4-(3,5-dichlorophenyl)-1-(4-(3,5-dimethylisoxazol-4-yl)-5-(isopropylthio)thiazol-2-yl)-3-methyl-1H-pyrazole-5-carboxylic Acid] | > 25 µM |
| Cc1cc(OC(F)(F)F)ccc1-c1nc(-n2nc(C)c(-c3cccc(F)c3)c2C(=O)O)sc1SC(C)C [Compound 224, 4-(3-fluorophenyl)-1-(5-(isopropylthio)-4-(2-methyl-4-(trifluoromethoxy)phenyl)thiazol-2-yl)-3-methyl-1H-pyrazole-5-carboxylic acid] | < 1 µM |
| Cc1nn(-c2nc(-c3ccc(Cl)c(Cl)c3)c(SC(C)C)s2)c(C(=O)O)c1-c1cccc2ccn(C)c12 [Compound 155, 1-(4-(3,4-dichlorophenyl)-5-(isopropylthio)thiazol-2-yl)-3-methyl-4-(1-methyl-1H-indol-7-yl)-1H-pyrazole-5-carboxylic Acid] | 5 to 10 µM |
| Cc1nn(-c2nc(-c3ccc(Cl)c(Cl)c3)c(SC(C)C)s2)c(C(=O)NS(C)(=O)=O)c1-c1cc(C(F)(F)F)cc(C(F)(F)F)c1 [Compound 148, 4-(3,5-bis(trifluoromethyl)phenyl)-1-(4-(3,4-dichlorophenyl)-5-(isopropylthio)thiazol-2-yl)-3-methyl-N-(methylsulfonyl)-1H-pyrazole-5-carboxamide] | > 40 µM |
| Cc1nn(-c2nc(-c3ccc(Cl)c(Cl)c3)c([S+]([O-])C(C)C)s2)c(C(=O)O)c1Cc1ccccc1[N+](=O)[O-] (stereo not shown) [Compound 54, 1-(4-(3,4-dichlorophenyl)-5-(isopropylsulfinyl)thiazol-2-yl)-3-methyl-4-(2-nitrobenzyl)-1H-pyrazole-5-carboxylic acid] | 25 to 50 µM |
| Cc1nn(-c2nc(-c3cccnc3)c(SC(C)C)s2)c(C(=O)O)c1-c1cc(Cl)cc(Cl)c1 [Compound 30, 4-(3,5-dichlorophenyl)-1-(5-(isopropylthio)-4-(pyridin-3-yl)thiazol-2-yl)-3-methyl-1H-pyrazole-5-carboxylic acid] | > 25 µM |
| Cc1cc(-c2c(C)nn(-c3nc(-c4ccc(F)cc4)c(SC(C)C)s3)c2C(=O)O)cc(C)n1 [Compound 204, 4-(2,6-dimethylpyridin-4-yl)-1-(4-(4-fluorophenyl)-5-(isopropylthio)thiazol-2-yl)-3-methyl-1H-pyrazole-5-carboxylic acid] | 1 to 5 µM |
